From patent publication US20230355566A1, “POTENTIATION OF HELMINTH TREATMENT” (Elanco Tiergesundheit AG, priority 2019, published 2023)

How the values were obtained:
[1] = system: Fasciola hepatica (Sunny Corner isolate, Fashep-66), immature stage; assay: Efficacy and synergy against immature stage of Fasciola hepatica in experimentally infected sheep (Example 3); format: in vivo; conditions: closantel 3.75 mg/kg, combination 40 and 3.75 mg/kg; for % Efficacy using arithmetic mean / % Efficacy using geometric mean: single oral treatment day 42, diamphenethide 40 mg/kg, vs untreated control; for Fluke Count, arithmetic mean / Fluke Count, geometric mean: single oral treatment day 42 after infection, diamphenethide 40 mg/kg, live fluke in liver day 91
Experimental: In the following examples, all animals were confirmed free of infection with F. hepatica and found clinically healthy by a veterinarian prior to enrollment in the study. Doses were administered orally from suitably sized disposable syringes. The fluke counts and body weights were log-transformed (after adding a constant of 1 to the fluke counts only) and the distribution of the transformed data checked to see if they satisfied the assumption of normal distribution. Differences between treatment groups were analyzed by analysis of variance methods (ANOVA), as the assumptions of normal distribution were satisfied for log-transformed fluke count and log-transformed bodyweight, as well as for (untransformed) fluke measurements. Arithmetic […]), geometric […]), median and ranges were summarized for fluke counts, fluke measurements and bodyweight. A constant of one was applied for calculation of geometric means of fluke counts. The percentage efficacy for each treated group was calculated as follows: […] where FCC is the arithmetic mean fluke count of the control group and FCT is the arithmetic mean fluke count of the treated group. […] Note that expected synergy is defined as: […] Administered Concurrently with Closantel Against the Immature Stage of Fasciola hepatica Infections in Sheep This study was to assess the efficacy of […] (40 mg/kg) given concurrently with closantel (3.75 mg/kg), […] alone (40 mg/kg), and closantel alone (3.75 mg/kg) against F. hepatica in sheep (3-4 month Merino lambs) with treatment on day 42. This was a controlled, blinded, randomized study. On day 0, the sheep were experimentally infected with a single isolate of approximately 200 Sunny Corner ([…]-66) isolate F. hepatica metacercariae. The required number of […] up in carboxymethyl cellulose. Syringes were checked post-infection for retained […]. The infection was administered orally and each infective dose was followed by water administered orally. The sheep were randomized into treatment groups on the basis of day 41 body weight and allocated to groups as denoted in Table 3.1. Body weight was determined one day prior to treatment. All treatments were measured by volume and rounded to the nearest 0.1 mL. On day 42, and before feeding, the individual animals were treated once only with the treatment in Table 3.1. Once the animals had been treated they were returned to their pens and fed within one hour. Untreated control animals were also fed at this time. The liver with gall bladder and bile ducts intact were recovered from each animal on day 91 and processed for F. hepatica counts. The assessment of efficacy was based on the number of live fluke removed from the liver.

[2] = system: Fasciola hepatica (Oberon isolate, Fashep-65), early immature stage; assay: Efficacy against early immature stage of Fasciola hepatica in experimentally infected sheep (Example 2); format: in vivo; conditions: closantel 10 mg/kg, combination 60 and 10 mg/kg
Experimental: In the following examples, all animals were confirmed free of infection with F. hepatica and found clinically healthy by a veterinarian prior to enrollment in the study. Doses were administered orally from suitably sized disposable syringes.
The fluke counts and body weights were log-transformed (after adding a constant of 1 to the fluke counts only) and the distribution of the transformed data checked to see if they satisfied the assumption of normal distribution. Differences between treatment groups were analyzed by analysis of variance methods (ANOVA), as the assumptions of normal distribution were satisfied for log-transformed fluke count and log-transformed bodyweight, as well as for (untransformed) fluke measurements.
Arithmetic means (Amean), geometric means (Gmean), median and ranges were summarized for fluke counts, fluke measurements and bodyweight. A constant of one was applied for calculation of geometric means of fluke counts.
The percentage efficacy for each treated group was calculated as follows:
% Efficacy=100×(FCC−FCT)/FCC
where FCC is the arithmetic mean fluke count of the control group and FCT is the arithmetic mean fluke count of the treated group. The formula was also applied using mean geometric fluke counts; these were calculated using log transformed data with 1 added as a constant to each fluke count and then subtracted following transformation.
Efficacy of Diamphenethide in Combination with Closantel in Oral Formulations Against the Early Immature Stage of Fasciola hepatica in Sheep
This study was to assess the efficacy of diamphenethide (60 mg/kg) given concurrently with closantel (10 mg/kg), diamphenethide alone (60 mg/kg), and closantel alone (10 mg/kg) against F. hepatica in sheep with treatment on day 14. This was a controlled, blinded, randomized study using […] Merino lambs.
On day 0, the sheep were experimentally infected with a target of 87 Oberon isolate (Fashep-65) F. hepatica metacercariae. The required number of metacercariae were prepared for infection in a water and 4% carboxymethylcellulose solution. Each infective dose was followed by water administered orally.
The sheep were randomized into treatment groups on the basis of day 11 body weight and allocated to groups as denoted in Table 2.1.
Body weight was determined on day 11 and doses were measured by volume and rounded to the nearest 0.1 mL. On day 14, and before feeding, the individual animals were treated once only with the Treatment in Table 2.1. Once the animals had been treated they were returned to their pens and fed within one hour. Untreated control animals were also fed at this time.
The liver with gall bladder and common bile duct intact were recovered on day 91 or 92 from each animal and processed for F. hepatica counts. […]

liver flukes = conditions: cited from earlier work
[3] = deacylation to DAMD; cited from earlier work
[4] = single oral treatment day 14, diamphenethide 60 mg/kg, vs untreated control
[5] = single oral treatment day 14 after infection, diamphenethide 60 mg/kg, live fluke in liver day 91 or 92

Row | Structure (SMILES) | % Efficacy using arithmetic mean [1] | % Efficacy using geometric mean [1] | Fluke Count, arithmetic mean [1] | Fluke Count, geometric mean [1] | % Efficacy using arithmetic mean [2, 4] | % Efficacy using geometric mean [2, 4] | Fluke Count, arithmetic mean [2, 5] | Fluke Count, geometric mean [2, 5] | Activity against early immature flukes (liver flukes; flukes up to 6 weeks of age) | Activity against flukes as they develop to maturity (liver flukes; maturing flukes) | Metabolism [3]
1 | Cc1cc(C(C#N)c2ccc(Cl)cc2)c(Cl)cc1NC(=O)c1cc(I)cc(I)c1O (stereo not drawn) [Closantel, N-[5-chloro-4-[(4-chlorophenyl)cyanomethyl]-2-methylphenyl]-2-hydroxy-3,5-diiodobenzamide] | 40.1% | 40.7% | 54.0 | 51.6 |  |  |  |  |  |  | 
2 | CC(=O)Nc1ccc(OCCOCCOc2ccc(NC(C)=O)cc2)cc1 [Diamphenethide, N-[4-[2-[2-(4-acetamidophenoxy)ethoxy]ethoxy]phenyl]acetamide] | 36.1% | 41.5% | 57.6 | 50.9 | 98.3% | 98.4% | 0.3 | 0.3 | highly effective | progressively lower activity | rapidly metabolized by deacylation
